Assay results: patent US5461176A, “Processes for preparing bis-naphthalimides containing amino-acid derived linkers” (The Du Pont Merck Pharmaceutical Company, priority 1994, dated 1995)
In brackets after ≈: the same amount, converted by molar mass. Like-named read-outs stand apart in the source and are kept apart here. Blank lines part the entries; values can stand above or below the molecule they belong to.

What was measured:
[1] = tested on: MX-1 human mammary carcinoma; experiment: In vivo human tumor xenograft model, MX-1 human mammary carcinoma in nude mice; conditions: i.v. once daily for nine consecutive days, NCI criteria
From the text: (§1) The DLD-2 human colon tumor, MX-1 human mammary carcinoma, and LX-1 human lung tumor were originally obtained from a surgically removed primary colon carcinoma, breast tumor, and non-small lung carcinoma, respectively. The human tumor lines were maintained by serial passage in athymic nude mice. The MX-1 human mammary carcinoma and LX-1 human lung tumor are established tumors used by the NCI. The DLD-2, MX-1, and LX-1 tumor models have been well characterized.
(§2) The mice used in these experiments were outbred Swiss mice or BALB/c mice bearing the nude (nu/nu) gene. On day 0 male and female mice weighing 22-30 g are inoculated with 0.2 mL of a 25% tumor mince. This mince is prepared by mincing fresh tumor tissue, grown subcutaneously in passage mice, in sterile physiological saline. Palpable tumors weighing approximately 50 mg appear in the mice within 7-10 days after inoculation. The mice are pair matched by tumor weight and sex into groups of ten each and the test compounds and vehicle control are administered intravenously (i.v.) once daily for nine consecutive days. A >20% decrease in body weight on day 5 following compound administration is considered an indication of toxicity. Tumor measurements and body weights are recorded once a week. Fifteen to 18 days after the initial injection the mice are weighed, sacrificed and the tumors excised and weighed.
(§3) The efficacy of the test compounds is determined by the extent of tumor growth inhibition in treated versus vehicle-treated control mice. Initial tumor weights (mg) are calculated from the tumor dimensions (mm) measured from caliper measurements, using the formula for a prolate ellipsoid (mg of tumor weight=(length×width^2)/2). Net tumor weights are calculated for each of the treated groups and the vehicle-treated control group by subtracting the initial tumor weight from the final tumor weight on day 15. Results are expressed as a percentage decrease relative to the mean tumor weight for the control vehicle-treated group. [formula]
(§4) The criteria of the National Cancer Institute (NCI) for activity in the in vivo cancer models were used. Tumor growth inhibition of 58-89% in the DLD-2 assay is considered moderate activity and inhibition of ≥90% is condidered good to excellent activity.

DLD-2 human colon tumor = experiment: In vivo human tumor xenograft model, DLD-2 human colon tumor in nude mice; conditions: i.v. once daily for nine consecutive days, tumor growth inhibition, NCI criteria
From the text: as §1, §2, §3, §4

[2] = tested on: murine leukemia L1210 cells; experiment: In vitro growth inhibition of L1210 cells (MTT); format: cell-based; conditions: Mus musculus
Procedure: L1210 cells were maintained in RPMI-1640 a medium supplemented with 10% heat inactivated fetal bovine serum and […] (RPMI-L). B16 cells were maintained in RPMI-1640 medium supplemented with 15% heat inactivated fetal bovine serum and antiobiotics (RPMI-C).
Exponentially growing murine leukemia L1210 cells (1×10^3 cells) in 0.1 mL medium were seeded on day 0 in a 96-well microtiter plate. On day 1, […] aliquot of medium containing graded concentrations of test analogs was added to the initial volume. After incubation at 37° C. in a humidified incubator for 3 days, the plates were centrifuged briefly and […] of the growth medium was removed. Cell cultures were incubated with 50 μL of 3-(4,5-dimethylthiazol-2-yl)-2,5-diphenyltetrazolium bromide (MTT; 1 mg/ml in Dulbecco's phosphate buffer saline) for 4 hours at 37° C. The resulting purple formazan precipitate was solubilized with 200 μL of 0.04N HCl in isopropyl alcohol. Absorbance was read in a Titertek Multiskan MCC scaning well spectrophotometer (Flow Laboratories) at a test wavelength of 570 nm and a reference wavelength of 630 nm.
The ID50 values were determined by a computer program that fit all of the data (8 determinations per concentration and 12 concentrations per test analog) to the following equation:
Y=((Am-Ao)/(1+(X/ID50)n))+Ao
where: Am=absorbance of the control cells; Ao=absorbance of the cells in the presence of highest drug concentration; Y=observed absorbance; X=drug concentration; ID50 =dose of drug that inhibits the growth of cells to one half that of the control cells.

LX-1 human lung tumor = experiment: In vivo human tumor xenograft model, LX-1 human lung tumor in nude mice; conditions: i.v. once daily for nine consecutive days, NCI criteria
From the text: as §1, §2, §3, §4

SMILES: C[C@H](CNCCNC[C@@H](C)N1C(=O)c2cccc3cc([N+](=O)[O-])cc(c23)C1=O)N1C(=O)c2cccc3cc([N+](=O)[O-])cc(c23)C1=O [Example 3, (R,R)-2,2'-[1,2-ethanediylbis[imino(1-methyl-2,1-ethanediyl)]]-bis[5-nitro-1H-benz[de]isoquinoline-1,3(2H)-dione]methanesulfonate (1:2)]
activity in the MX-1 human breast tumor model [1]: excellent to outstanding activity
activity against DLD-2 human colon tumors (DLD-2 human colon tumor): excellent to outstanding activity
IC50 ([2]; L1210, 72 h, read-out: ID50): 0.051 µg/mL (≈ 0.0817 µM)
activity against LX-1 human lung tumors (LX-1 human lung tumor): good to excellent activity (inhibition of ≥90% is condidered good to excellent activity)

SMILES: C[C@@H](CN1C(=O)c2cccc3cc([N+](=O)[O-])cc(c23)C1=O)NCCN[C@@H](C)CN1C(=O)c2cccc3cc([N+](=O)[O-])cc(c23)C1=O (relative stereo) [Example 42]
IC50 ([2]; L1210, 72 h, read-out: ID50): < 0.001 µg/mL

SMILES: C[C@H](CNCCNC[C@H](C)N1C(=O)c2cccc3cc([N+](=O)[O-])cc(c23)C1=O)N1C(=O)c2cccc3cc([N+](=O)[O-])cc(c23)C1=O [Example 26, (Meso)-2,2'-[1,2-ethanediylbis[imino(1-methyl-2,1-ethanediyl)]]-bis[5-nitro-1H-benz[de]isoquinoline-1,3(2H)-dione]methanesulfonate (1:2)]
activity against DLD-2 human colon tumors (DLD-2 human colon tumor): excellent to outstanding activity
IC50 ([2]; L1210, 72 h, read-out: ID50): 0.074 µg/mL (≈ 0.118 µM)

SMILES: C[C@@H](CN1C(=O)c2cccc3cc([N+](=O)[O-])cc(c23)C1=O)NCCN[C@@H](C)CN1C(=O)c2cccc3cc([N+](=O)[O-])cc(c23)C1=O [Example 27, (S,S)-2,2'-[1,2-ethanediylbis[imino(2-methyl-2,1-ethanediyl)]]-bis[5-nitro-1H-benz[de]isoquinoline-1,3(2H)-dione]methanesulfonate (1:2)]
activity in the MX-1 human breast tumor model [1]: excellent to outstanding activity
activity against DLD-2 human colon tumors (DLD-2 human colon tumor): excellent to outstanding activity
IC50 ([2]; L1210, 72 h, read-out: ID50): 0.0025 µg/mL (≈ 0.004 µM)
activity against LX-1 human lung tumors (LX-1 human lung tumor): good to excellent activity (inhibition of ≥90% is condidered good to excellent activity)

SMILES: CC(CNCCNCC(C)N1C(=O)c2cccc3cc([N+](=O)[O-])cc(c23)C1=O)N1C(=O)c2cccc3cc([N+](=O)[O-])cc(c23)C1=O (racemic) [Example 2, (Racemate+meso)-2,2'-[1,2-ethanediylbis[imino(1-methyl-2,1-ethanediyl)]]-bis[5-nitro-1H-benz[de]isoquinoline-1,3(2H) -dione]methanesulfonate (1:2)]
activity in the MX-1 human breast tumor model [1]: excellent to outstanding activity
activity against DLD-2 human colon tumors (DLD-2 human colon tumor): excellent to outstanding activity
IC50 ([2]; L1210, 72 h, read-out: ID50): 0.062 µg/mL (≈ 0.0993 µM)
activity against LX-1 human lung tumors (LX-1 human lung tumor): good to excellent activity (inhibition of ≥90% is condidered good to excellent activity)

SMILES: C[C@H](CN1C(=O)c2cccc3c([N+](=O)[O-])ccc(c23)C1=O)NCCN[C@H](C)CN1C(=O)c2cccc3c([N+](=O)[O-])ccc(c23)C1=O [Example 31]
IC50 ([2]; L1210, 72 h, read-out: ID50): 0.19 µg/mL (≈ 0.304 µM)

SMILES: C[C@@H](CN[C@@H](C)CN1C(=O)c2cccc3cc([N+](=O)[O-])cc(c23)C1=O)NC[C@H](C)N1C(=O)c2cccc3cc([N+](=O)[O-])cc(c23)C1=O [Example 43]
IC50 ([2]; L1210, 72 h, read-out: ID50): 0.04 µg/mL (≈ 0.0626 µM)

SMILES: CC(CN1C(=O)c2cccc3cc([N+](=O)[O-])cc(c23)C1=O)NCCNC(C)CN1C(=O)c2cccc3cc([N+](=O)[O-])cc(c23)C1=O (racemic) [Example 30]
activity in the MX-1 human breast tumor model [1]: excellent to outstanding activity
activity against DLD-2 human colon tumors (DLD-2 human colon tumor): excellent to outstanding activity
IC50 ([2]; L1210, 72 h, read-out: ID50): < 0.01 µg/mL

SMILES: CS(=O)(=O)O.CS(=O)(=O)O.C[C@H](CN1C(=O)c2cccc3cc([N+](=O)[O-])cc(c23)C1=O)NCCN[C@H](C)CN1C(=O)c2cccc3cc([N+](=O)[O-])cc(c23)C1=O [Example 29, (R,R)-2,2'-[1,2-ethanediylbis[imino(2-methyl)-2,1-ethanediyl)]-bis[5-nitro-1H-benz[de]isoquinoline-1,3(2H)-dione]-methanesulfonate (1:2)]
activity in the MX-1 human breast tumor model [1]: excellent to outstanding activity
activity against DLD-2 human colon tumors (DLD-2 human colon tumor): good to excellent activity (inhibition of ≥90% is condidered good to excellent activity)
IC50 ([2]; L1210, 72 h, read-out: ID50): < 0.01 µg/mL
activity against LX-1 human lung tumors (LX-1 human lung tumor): good to excellent activity (inhibition of ≥90% is condidered good to excellent activity)

IC50 ([2]; 72 h, murine leukemia L1210 cells, 3 days incubation, MTT, read-out: ID50 (the source's name)): 0.21 µg/mL (≈ 0.393 µM)
SMILES: C[C@@H](CN1C(=O)c2cccc3cccc(c23)C1=O)NCCN[C@@H](C)CN1C(=O)c2cccc3cccc(c23)C1=O [Example 28, (S,S)-2,2'-[1,2-ethanediylbis[imino(2-methyl-2,1-ethanediyl)]]-bis[^1 H-benz[de]isoquinoline-1,3(2H)-dione]methanesulfonate (1:2)]

SMILES: C[C@H](CN1C(=O)c2cc([N+](=O)[O-])cc3cc([N+](=O)[O-])cc(c23)C1=O)NCCN[C@H](C)CN1C(=O)c2cc([N+](=O)[O-])cc3cc([N+](=O)[O-])cc(c23)C1=O [Example 32]
IC50 ([2]; L1210, 72 h, read-out: ID50): 0.057 µg/mL (≈ 0.0798 µM)

SMILES: C[C@@H](CNCCNC[C@H](C)N1C(=O)c2cccc3cc([N+](=O)[O-])cc(c23)C1=O)N1C(=O)c2cccc3cc([N+](=O)[O-])cc(c23)C1=O [Example 1, (S,S)-2,2'-[1,2-ethanediylbis[imino(1-methyl-2,1-ethanediyl)]]-bis[5-nitro-1H-benz[de]isoquinoline-1,3(2H)-dione]methanesulfonate (1:2)]
activity in the MX-1 human breast tumor model [1]: good to excellent activity (inhibition of ≥90% is condidered good to excellent activity)
activity against DLD-2 human colon tumors (DLD-2 human colon tumor): excellent to outstanding activity
IC50 ([2]; L1210, 72 h, read-out: ID50): 0.047 µg/mL (≈ 0.0752 µM)
